pEC50, pIC50: −log10 of the molar value. Each block holds one compound with its values, some of them ahead of it.
What was measured:
[1] = molecular target: T1, Cannabinoid receptor 1 (Homo sapiens, UniProt P21554); assay: Agonist activity at human CB1 receptor stably expressed in CHO-RD-HGA16 cells assessed as increase in intracellular calcium mobilization at 10 uM by FLIPR assay relative to CP55940; format: functional, cell-based
[2] = molecular target: Cannabinoid receptor 2 (Homo sapiens) (UniProt P34972); assay: Antagonist activity at human CB2 receptor stably expressed in CHO-RD-HGA16 cells assessed as inhibition of CP55940-induced intracellular calcium mobilization at 10 uM by FLIPR assay relative to CP55940; format: functional, cell-based; set-up: scale not given: the % may be the effect or the level left
Sequence of Cannabinoid receptor 2 (Homo sapiens) (P34972 whole entry): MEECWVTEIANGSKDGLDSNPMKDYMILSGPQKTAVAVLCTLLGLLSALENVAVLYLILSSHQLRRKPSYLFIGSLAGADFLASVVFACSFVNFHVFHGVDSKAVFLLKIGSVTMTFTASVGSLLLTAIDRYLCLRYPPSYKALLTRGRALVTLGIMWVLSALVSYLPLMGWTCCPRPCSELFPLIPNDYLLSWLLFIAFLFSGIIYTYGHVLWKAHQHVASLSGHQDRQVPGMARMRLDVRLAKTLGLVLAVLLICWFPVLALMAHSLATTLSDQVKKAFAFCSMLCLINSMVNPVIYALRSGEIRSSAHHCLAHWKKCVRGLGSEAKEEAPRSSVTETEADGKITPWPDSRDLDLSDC

[3] = molecular target: T1, Cannabinoid receptor 1; assay: Negative allosteric modulation of human CB1 receptor stably expressed in CHO-RD-HGA16 cells assessed as inhibition of CP55940-induced intracellular calcium mobilization incubated for 15 mins by FLIPR assay; format: functional, cell-based
[4] = molecular target: Cannabinoid receptor 1 (Mus musculus, UniProt P47746); assay: Negative allosteric modulation of CD-1 mouse CB1 receptor extracted from cerebellum membrane in presence of [35S]GTP-gammaS; format: cell membranes
Sequence of Cannabinoid receptor 1 (Mus musculus, UniProt P47746) (P47746 whole entry): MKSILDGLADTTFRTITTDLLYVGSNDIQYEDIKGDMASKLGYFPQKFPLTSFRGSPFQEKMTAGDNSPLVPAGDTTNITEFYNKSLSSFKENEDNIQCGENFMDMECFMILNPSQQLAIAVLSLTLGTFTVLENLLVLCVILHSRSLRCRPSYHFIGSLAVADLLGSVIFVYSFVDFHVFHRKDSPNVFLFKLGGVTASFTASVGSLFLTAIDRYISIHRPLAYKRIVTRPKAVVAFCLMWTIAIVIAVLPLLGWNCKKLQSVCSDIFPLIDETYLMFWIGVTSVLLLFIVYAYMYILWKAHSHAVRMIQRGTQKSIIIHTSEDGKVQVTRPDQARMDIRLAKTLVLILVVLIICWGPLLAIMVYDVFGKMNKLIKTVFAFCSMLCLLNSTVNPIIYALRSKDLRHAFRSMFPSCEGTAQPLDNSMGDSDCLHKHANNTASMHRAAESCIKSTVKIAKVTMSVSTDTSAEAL

[5] = molecular target: T1, Cannabinoid receptor 1; assay: Negative allosteric modulation of human CB1 receptor extracted from HEK293 cell membrane in presence of [35S]GTP-gammaS; format: cell membranes
[6] = molecular target: T1, Cannabinoid receptor 1; assay: Negative allosteric modulation of human CB1 extracted from HEK293 cell membrane assessed as increase in forskolin-induced cAMP production preincubated for 15 mins followed by forskolin/CP55940 addition by BRET CAMYEL cAMP assay
[7] = molecular target: T1, Cannabinoid receptor 1; assay: Negative allosteric modulation of human CB1 extracted from HEK293 cell membrane assessed as specific binding of [3H]CP55940 incubated for 90 mins; format: cell membranes
[8] = Stability in human liver microsomes assessed as half life at 1 uM preincubated for 10 mis followed by NADPH addition measured for 15 to 60 mins by LC-MS/MS analysis; format: ADME, Microsome; conditions: time 25-70 min
[9] = Stability in human liver microsomes assessed as clearance at 1 uM preincubated for 10 mis followed by NADPH addition measured for 15 to 60 mins by LC-MS/MS analysis; format: ADME, Microsome; conditions: time 25-70 min
[10] = Stability in human hepatocytes assessed as half life at 1 uM measured up to 120 mins by LC/MS/MS analysis; format: ADME, cell-based, Hepatocyte; conditions: 2 h
[11] = Stability in human hepatocytes assessed as clearance at 1 uM measured up to 120 mins by LC/MS/MS analysis; format: ADME, cell-based, Hepatocyte; conditions: 2 h
[12] = Kinetic solubility of compound in PBS incubated for 2 hrs by LC-MS/MS analysis; format: physicochemical; conditions: read-out: Kinetic_solubility
[13] = Apparent permeability across apical to basal side in MDCK-MDR1 cells at 10 uM measured for 30 to 90 mins by LC-MS/MS analysis; format: ADME, cell-based, Canis lupus familiaris; conditions: dog, mdck-mdr1, 10 µM, time 30-90 min
[14] = Apparent permeability across basal to apical side in MDCK-MDR1 cells at 10 uM measured for 30 to 90 mins by LC-MS/MS analysis; format: ADME, cell-based, Canis lupus familiaris; conditions: dog, mdck-mdr1, 10 µM, time 30-90 min
[15] = Protein binding in rat plasma at 1 uM incubated for 6 hrs by LC-MS/MS analysis; format: ADME, cell-free
[16] = Protein binding in rat brain at 1 uM incubated for 6 hrs by LC-MS/MS analysis; format: ADME, tissue-based
[17] = Protein binding in human plasma at 1 uM incubated for 6 hrs by LC-MS/MS analysis; format: ADME, cell-free
[18] = Drug concentration in plasma of Sprague-Dawley rat at 1 mg/kg, iv measured after 5 mins by LC-MS/MS analysis; format: ADME, organism-based
[19] = Drug excretion in Sprague-Dawley rat at 1 mg/kg, iv measured after 4 hrs by LC-MS/MS analysis; format: ADME, organism-based; conditions: in vivo
[20] = Half life in Sprague-Dawley rat at 1 mg/kg, iv measured for 0.08 to 8 hrs by LC-MS/MS analysis; format: ADME, organism-based; conditions: in vivo, time 0.08-8 hrs
[21] = Drug concentration in plasma of Sprague-Dawley rat at 5.6 mg/kg, ip measured after 0.25 hrs by LC-MS/MS analysis; format: ADME, organism-based
[22] = Drug concentration in plasma of Sprague-Dawley rat at 5.6 mg/kg, ip measured after 0.5 hrs by LC-MS/MS analysis; format: ADME, organism-based
[23] = Drug concentration in plasma of Sprague-Dawley rat at 5.6 mg/kg, ip measured after 1 hr by LC-MS/MS analysis; format: ADME, organism-based
[24] = Drug concentration in plasma of Sprague-Dawley rat at 5.6 mg/kg, ip measured after 8 hrs by LC-MS/MS analysis; format: ADME, organism-based
[25] = Drug concentration in brain of Sprague-Dawley rat at 5.6 mg/kg, ip measured after 0.25 hrs by LC-MS/MS analysis; format: ADME, organism-based; conditions: read-out: Ct
[26] = Drug concentration in brain of Sprague-Dawley rat at 5.6 mg/kg, ip measured after 0.5 hrs by LC-MS/MS analysis; format: ADME, organism-based; conditions: read-out: Ct
[27] = Drug concentration in brain of Sprague-Dawley rat at 5.6 mg/kg, ip measured after 1 hr by LC-MS/MS analysis; format: ADME, organism-based; conditions: read-out: Ct
[28] = Drug concentration in brain of Sprague-Dawley rat at 5.6 mg/kg, ip measured after 8 hrs by LC-MS/MS analysis; format: ADME, organism-based; conditions: read-out: Ct

T1 sequence (P21554 whole entry): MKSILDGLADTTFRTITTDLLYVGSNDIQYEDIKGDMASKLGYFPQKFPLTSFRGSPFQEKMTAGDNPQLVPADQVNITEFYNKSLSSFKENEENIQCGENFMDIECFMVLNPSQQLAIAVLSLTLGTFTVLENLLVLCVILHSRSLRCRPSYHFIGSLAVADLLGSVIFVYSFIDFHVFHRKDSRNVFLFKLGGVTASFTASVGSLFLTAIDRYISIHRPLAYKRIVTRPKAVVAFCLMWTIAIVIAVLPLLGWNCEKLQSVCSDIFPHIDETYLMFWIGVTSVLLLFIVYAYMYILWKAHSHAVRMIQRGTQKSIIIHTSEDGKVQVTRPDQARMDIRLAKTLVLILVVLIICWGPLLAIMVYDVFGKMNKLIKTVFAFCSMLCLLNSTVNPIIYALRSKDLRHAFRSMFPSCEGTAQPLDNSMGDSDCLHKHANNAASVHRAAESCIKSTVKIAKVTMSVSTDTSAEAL

Structure (SMILES): CCN(CC)c1ccc(CCNc2c(Nc3ccc(Cl)cc3)c(=O)c2=O)cc1
pIC50 [3]: < 5.00 | Activity [1]: < 30% | Activity [2]: < 50%

Structure (SMILES): O=c1c(NCCc2cccs2)c(Nc2ccc(Cl)cc2)c1=O
pIC50 [3]: 6.16 | Activity [1]: < 30% | Activity [2]: < 50%

Structure (SMILES): CN(C)c1ccc(CCNc2c(Nc3ccc(Cl)cc3)c(=O)c2=O)cc1
pIC50 [3]: 6.30 | Activity [1]: < 30% | Activity [2]: < 50% | pIC50 [4]: 6.21

Structure (SMILES): O=c1c(NCCc2ccc(F)cc2F)c(Nc2ccc(Cl)cc2)c1=O
pIC50 [3]: 6.04 | Activity [1]: < 30% | Activity [2]: < 50%

Structure (SMILES): O=c1c(NCCc2ccc(N3CCCCC3)cc2)c(Nc2ccc(Cl)cc2)c1=O
Activity [1]: < 30% | Activity [2]: < 50%

Structure (SMILES): O=c1c(NCCc2ccc(N3CCC3)cc2)c(Nc2ccc(Cl)cc2)c1=O
Activity [1]: < 30% | Activity [2]: < 50%

Structure (SMILES): O=C(Nc1ccc(Cl)cc1)Nc1cccc(-c2cccc(N3CCCC3)n2)c1
Activity [2]: < 50%

Structure (SMILES): O=c1c(NCCc2ccc(C(F)(F)F)cc2)c(Nc2ccc(Cl)cc2)c1=O
Activity [1]: < 30% | Activity [2]: < 50%

Structure (SMILES): O=c1c(NCCc2ccc(Cl)cc2Cl)c(Nc2ccc(Cl)cc2)c1=O
Activity [2]: < 50%

Structure (SMILES): CC(=O)c1ccc(CCNc2c(Nc3ccc(Cl)cc3)c(=O)c2=O)cc1
pIC50 [3]: < 5.00 | Activity [1]: < 30% | Activity [2]: < 50%

Structure (SMILES): O=c1c(NCCc2ccccc2C(F)(F)F)c(Nc2ccc(Cl)cc2)c1=O
Activity [1]: < 30% | Activity [2]: < 50%

Structure (SMILES): O=c1c(Nc2ccc(Cl)cc2)c(N2CCN(c3ccc(Cl)cc3)CC2)c1=O
pIC50 [3]: < 5.00 | Activity [1]: < 30% | Activity [2]: < 50%

Structure (SMILES): O=c1c(NCCc2ccc(N3CCCC3)cc2)c(Nc2ccc(Cl)cc2)c1=O
Activity [1]: < 30% | Activity [2]: < 50%

Structure (SMILES): Cc1ccc(CCNc2c(Nc3ccc(Cl)cc3)c(=O)c2=O)cc1C
pIC50 [3]: 6.37 | Activity [1]: < 30% | Activity [2]: < 50%

Structure (SMILES): O=c1c(NCCN2CCCCC2)c(Nc2ccc(Cl)cc2)c1=O
Activity [1]: < 30% | Activity [2]: < 50%

Structure (SMILES): O=c1c(NCCc2ccc(Cl)c(Cl)c2)c(Nc2ccc(Cl)cc2)c1=O
Activity [1]: < 30% | Activity [2]: < 50%

Structure (SMILES): Cc1ccccc1CCNc1c(Nc2ccc(Cl)cc2)c(=O)c1=O
pIC50 [3]: 5.90 | Activity [1]: < 30% | Activity [2]: < 50%

The remaining lines, values ahead:

Activity [1]: < 30% | Activity [2]: < 50%
Structure (SMILES): O=c1c(NCCc2ccc(F)cc2)c(Nc2ccc(Cl)cc2)c1=O

pIC50 [3]: 6.69 | Activity [1]: < 30% | Activity [2]: < 50%
Structure (SMILES): O=c1c(NCCc2ccccc2)c(Nc2ccc(Cl)cc2)c1=O

pIC50 [3]: < 5.00 | Activity [1]: < 30% | Activity [2]: < 50%
Structure (SMILES): O=c1c(NCCc2ccc(Br)cc2)c(Nc2ccc(Cl)cc2)c1=O

pIC50 [3]: < 5.00 | Activity [1]: < 30% | Activity [2]: < 50%
Structure (SMILES): O=c1c(NCCc2cccc(O)c2)c(Nc2ccc(Cl)cc2)c1=O

pIC50 [3]: 6.80 | Activity [1]: < 30% | Activity [2]: < 50% | pIC50 [4]: 6.19
Structure (SMILES): Cc1ccc(CCNc2c(Nc3ccc(Cl)cc3)c(=O)c2=O)cc1

Activity [1]: < 30% | Activity [2]: < 50%
Structure (SMILES): O=c1c(NCCc2ccc(Cl)cc2)c(Nc2ccc(Cl)cc2)c1=O

pIC50 [3]: 6.57 | Activity [1]: < 30% | Activity [2]: < 50% | pIC50 [5]: 5.18 | pIC50 [4]: 5.25
Structure (SMILES): O=c1c(NCCc2ccccc2F)c(Nc2ccc(Cl)cc2)c1=O

Activity [1]: < 30% | Activity [2]: < 50%
Structure (SMILES): COc1cccc(CCNc2c(Nc3ccc(Cl)cc3)c(=O)c2=O)c1

Activity [1]: < 30% | Activity [2]: < 50%
Structure (SMILES): COc1ccccc1CCNc1c(Nc2ccc(Cl)cc2)c(=O)c1=O

Activity [1]: < 30% | Activity [2]: < 50%
Structure (SMILES): CN(C)c1cccc(CCNc2c(Nc3ccc(Cl)cc3)c(=O)c2=O)c1

pIC50 [3]: < 5.00 | Activity [1]: < 30% | Activity [2]: < 50%
Structure (SMILES): O=c1c(NCc2ccccc2)c(Nc2ccc(Cl)cc2)c1=O

pIC50 [4]: 6.67 | pIC50 [6]: 6.83 | pEC50 [7]: 6.16 | t1/2 [8]: 15.8 min | CLH [9]: 87.8 µL/min/mg | t1/2 [10]: 88.3 min | CLH [11]: 39.9 µL/min/mg | solubility kinetic at 2 h [12]: < 1 µg/mL | Papp [13]: 3.1 10^-6 cm/s | Papp [14]: 6.4 10^-6 cm/s | PPB [15]: > 99% | PB [16]: > 99% | PPB [17]: > 99% | concentration at 5 min [18]: 1240 ng/mL | Drug excretion [19]: Active | t1/2 [20]: 30.6 min | concentration at 0.25 h [21]: 8.7 ng/mL | concentration at 0.5 h [22]: 11.7 ng/mL | concentration at 1 h [23]: 12.1 ng/mL | concentration at 8 h [24]: 4.6 ng/mL | concentration at 0.25 h [25]: 173 ng/mL | concentration at 0.5 h [26]: 59.5 ng/mL | concentration at 1 h [27]: 93.8 ng/mL | concentration at 8 h [28]: 54.8 ng/mL
Structure (SMILES): O=c1c(NCCc2cccc(Cl)c2)c(Nc2ccc(Cl)cc2)c1=O

pIC50 [3]: 6.06 | Activity [1]: < 30% | Activity [2]: < 50%
Structure (SMILES): O=c1c(NCCCc2ccccc2)c(Nc2ccc(Cl)cc2)c1=O

Activity [1]: < 30% | Activity [2]: < 50%
Structure (SMILES): O=c1c(NCCc2ccncc2)c(Nc2ccc(Cl)cc2)c1=O

pIC50 [3]: 6.08 | Activity [1]: < 30% | Activity [2]: < 50%
Structure (SMILES): O=c1c(NCCc2ccccc2Cl)c(Nc2ccc(Cl)cc2)c1=O

pIC50 [3]: 6.28 | Activity [1]: < 30% | Activity [2]: < 50%
Structure (SMILES): COc1ccc(CCNc2c(Nc3ccc(Cl)cc3)c(=O)c2=O)cc1

pIC50 [3]: 6.47 | Activity [1]: < 30% | Activity [2]: < 50%
Structure (SMILES): O=c1c(NCCc2cccc(C(F)(F)F)c2)c(Nc2ccc(Cl)cc2)c1=O

Activity [1]: < 30% | Activity [2]: < 50%
Structure (SMILES): O=c1c(NCCc2ccccn2)c(Nc2ccc(Cl)cc2)c1=O

pIC50 [3]: 6.55 | Activity [1]: < 30% | Activity [2]: < 50%
Structure (SMILES): O=c1c(NCCc2cccc(F)c2)c(Nc2ccc(Cl)cc2)c1=O

pIC50 [3]: 6.71 | Activity [1]: < 30% | Activity [2]: < 50% | pIC50 [4]: 6.04
Structure (SMILES): Cc1cccc(CCNc2c(Nc3ccc(Cl)cc3)c(=O)c2=O)c1

Source: ChEMBL document CHEMBL6109148, “Development of Squaramides as Allosteric Modulators of the CB1 Receptor: Synthesis, Computational Studies, Biological Characterization, and Effects against Cocaine-Induced Behavioral Sensitization and Reinstatement in Rats” (J Med Chem, 2025)
